Data set [1] is described as follows: Inhibition of NS5A in HCV genotype 1b Ava5 infected in human HuH7 cells containing Ava5-EG(D4AB)SEAP subgenomic replicons assessed as reduction in viral replicon growth incubated for 1 day by Phospha-light assay method. Type of data set: cell-based, Hepatitis C virus subtype 1b. The conditions noted are these: Hepatitis C virus, Ava5, 24 h. (A replicon is a self-replicating genome or part of one, used to study replication in cells.)

Data set [2] is described as follows: Cytotoxic activity against human HuH7 cells containing HCV subgenomic replicons Ava5-EG(D4AB)SEAP by MTS assay. Type of data set: cell-based, Huh-7.

The EC50 is the concentration needed to bring the measured effect to its halfway point. As usually defined, the CC50 is the concentration giving 50% cytotoxicity. As to `O=C(Nc1nccs1)[C@@H]1CCCN1C(=O)[C@H](NC(=O)N1CCOCC1)c1ccccc1`, the EC50 in data set [1] worked out at 9650 nM. Further, the 50% cytotoxic concentration (CC50) in data set [2] was greater than 50000 nM.

With `O=C(Nc1nc(-c2ccccc2)cs1)[C@@H]1CCCN1C(=O)[C@H](NC(=S)Nc1ccccc1)c1ccccc1`, in data set [1], the EC50 is 46 nM. For the same molecule, the CC50 in data set [2] is greater than 50000 nM.

For the molecule `O=C(N[C@@H](C(=O)N1CCC[C@H]1c1ncc(-c2ccccc2)[nH]1)c1ccccc1)N1CCOCC1`, in data set [1], the 50% effective concentration (EC50) worked out at 98 nM. In data set [2], this molecule registered a CC50 greater than 50000 nM.

With `O=C(Nc1ccccn1)N[C@@H](C(=O)N1CCC[C@H]1C(=O)Nc1nc(-c2ccccc2)cs1)c1ccccc1`, in data set [1], the 50% effective concentration (EC50) was found to be 30 nM. Further, the CC50 in data set [2] was greater than 50000 nM.

With `O=C(N[C@@H](C(=O)N1CCC[C@H]1C(=O)Nc1nc(-c2ccccc2)cs1)c1ccccc1)C1CCCC1`, the EC50 in data set [1] came out at 13 nM. This molecule also displayed a CC50 in data set [2] greater than 50000 nM.

Consider `CN(C)C(=O)N[C@@H](C(=O)N1CCC[C@H]1C(=O)Nc1nc(-c2ccccc2)cs1)c1ccccc1`, for which the concentration giving a half-maximal response (EC50) in data set [1] was determined as 11 nM. Also, the half-maximal cytotoxic concentration (CC50) in data set [2] is greater than 50000 nM.

For `O=C(NC1CC1)N[C@@H](C(=O)N1CCC[C@H]1C(=O)Nc1nc(-c2ccccc2)cs1)c1ccccc1`, the EC50 in data set [1] came to 3.5 nM. Besides, in data set [2], the half-maximal cytotoxic concentration (CC50) was greater than 50000 nM.

With `CC(=O)N[C@@H](C(=O)N1CCC[C@H]1C(=O)Nc1nc(-c2ccccc2)cs1)c1ccccc1`, in data set [1], the concentration giving a half-maximal response (EC50) is 16 nM. The molecule further came in with a 50% cytotoxic concentration (CC50) in data set [2] greater than 50000 nM.

For `C[C@@H](NC(=O)N1CCOCC1)C(=O)N1CCC[C@H]1C(=O)Nc1nc(-c2ccccc2)cs1`, in data set [1], the concentration for a half-maximal effect (EC50) came out at 1310 nM. In data set [2], this molecule yielded a half-maximal cytotoxic concentration (CC50) greater than 50000 nM.

As to `O=C(Nc1nc(-c2ccccc2)cs1)[C@@H]1CCCN1C(=O)[C@H](NC(=S)NC1CCCCC1)c1ccccc1`, in data set [1], the concentration giving a half-maximal response (EC50) amounted to 3.2 nM. The molecule also came in with a CC50 in data set [2] greater than 50000 nM.

As to `O=C(Nc1cccnc1)N[C@@H](C(=O)N1CCC[C@H]1C(=O)Nc1nc(-c2ccccc2)cs1)c1ccccc1`, the EC50 in data set [1] turned out to be 1.9 nM. Besides, in data set [2], the 50% cytotoxic concentration (CC50) was greater than 50000 nM.

As to `O=C(N[C@@H](C(=O)N1CCC[C@H]1c1nc(-c2ccccc2)cs1)c1ccccc1)N1CCOCC1`, in data set [1], the EC50 was determined as 9440 nM. In addition, the CC50 in data set [2] is greater than 50000 nM.

`O=C(Nc1nc(C2CCCCC2)cs1)[C@@H]1CCCN1C(=O)[C@H](NC(=O)N1CCOCC1)c1ccccc1`: the EC50 in data set [1] is 6 nM. The same molecule returned a CC50 in data set [2] greater than 50000 nM.

`CC(C)(C)c1csc(NC(=O)[C@@H]2CCCN2C(=O)[C@H](NC(=O)N2CCOCC2)c2ccccc2)n1`: the EC50 in data set [1] came to 21 nM. The molecule also registered a CC50 in data set [2] greater than 50000 nM.

For the molecule `Cc1csc(NC(=O)[C@@H]2CCCN2C(=O)[C@H](NC(=O)N2CCOCC2)c2ccccc2)n1`, the 50% effective concentration (EC50) in data set [1] came out at 400 nM. In addition, the CC50 in data set [2] was greater than 50000 nM.

Consider `O=C(Nc1ccncc1)N[C@@H](C(=O)N1CCC[C@H]1C(=O)Nc1nc(-c2ccccc2)cs1)c1ccccc1`, for which the EC50 in data set [1] amounted to 22 nM. This molecule displayed a CC50 in data set [2] greater than 50000 nM.

Consider `O=C(N[C@@H](C(=O)N1CCC[C@H]1C(=O)Nc1nc(-c2ccccc2)cs1)c1ccccc1)c1cccnc1`, for which the half-maximal effective concentration (EC50) in data set [1] turned out to be 13 nM. In data set [2], the CC50 is greater than 50000 nM.

With `O=C(Nc1nc(-c2ccccc2)cs1)[C@@H]1CCCN1C(=O)[C@H](NC(=S)NC1CC1)c1ccccc1`, in data set [1], the EC50 stood at 34 nM. Besides, in data set [2], the CC50 was greater than 50000 nM.

For the molecule `O=C(NC1CCCC1)N[C@@H](C(=O)N1CCC[C@H]1C(=O)Nc1nc(-c2ccccc2)cs1)c1ccccc1`, in data set [1], the EC50 stood at 13 nM. This molecule also yielded a cytotoxic concentration (CC50) in data set [2] greater than 50000 nM.

`CC(C)[C@@H](NC(=O)N1CCOCC1)C(=O)N1CCC[C@H]1C(=O)Nc1nc(-c2ccccc2)cs1`: the concentration giving a half-maximal response (EC50) in data set [1] stood at 990 nM. This molecule also had a CC50 in data set [2] greater than 50000 nM.

Consider `O=C(NC1CCCCC1)N[C@@H](C(=O)N1CCC[C@H]1C(=O)Nc1nc(-c2ccccc2)cs1)c1ccccc1`, for which the half-maximal effective concentration (EC50) in data set [1] was 3.3 nM. In addition, in data set [2], the half-maximal cytotoxic concentration (CC50) was greater than 50000 nM.

For `CC(C)C(=O)N[C@@H](C(=O)N1CCC[C@H]1C(=O)Nc1nc(-c2ccccc2)cs1)c1ccccc1`, the half-maximal effective concentration (EC50) in data set [1] came to 36 nM. The molecule further displayed a half-maximal cytotoxic concentration (CC50) in data set [2] greater than 50000 nM.

Turning to `O=C(Nc1nc(-c2ccccc2)cs1)[C@@H]1CCCN1C(=O)[C@H](NC(=O)N1CCCCC1)c1ccccc1`, the EC50 in data set [1] is 3.1 nM. In data set [2], this molecule had a CC50 greater than 50000 nM.

On to `CC(C)(C)[C@@H](NC(=O)N1CCOCC1)C(=O)N1CCC[C@H]1C(=O)Nc1nc(-c2ccccc2)cs1`, for which the EC50 in data set [1] is 7060 nM. This molecule gave a 50% cytotoxic concentration (CC50) in data set [2] greater than 50000 nM.

As to `CC(C)(C)C(=O)N[C@@H](C(=O)N1CCC[C@H]1C(=O)Nc1nc(-c2ccccc2)cs1)c1ccccc1`, the 50% effective concentration (EC50) in data set [1] came out at 86 nM. This molecule also returned a CC50 in data set [2] greater than 50000 nM.

As for `O=C(N[C@@H](C(=O)N1CCC[C@H]1C(=O)Nc1nc(-c2ccccc2)cs1)c1ccccc1)C1CCCCC1`, the EC50 in data set [1] came out at 14 nM. In data set [2], the CC50 was greater than 50000 nM.

Regarding `CCC[C@@H](NC(=O)N1CCOCC1)C(=O)N1CCC[C@H]1C(=O)Nc1nc(-c2ccccc2)cs1`, in data set [1], the EC50 was determined as 270 nM. For the same molecule, the CC50 in data set [2] is greater than 50000 nM.

On to `O=C(Nc1ccccc1)N[C@@H](C(=O)N1CCC[C@H]1C(=O)Nc1nc(-c2ccccc2)cs1)c1ccccc1`, for which, in data set [1], the EC50 was determined as 2.3 nM. The molecule also returned a cytotoxic concentration (CC50) in data set [2] greater than 50000 nM.

Take `O=C(NC1CCCCCC1)N[C@@H](C(=O)N1CCC[C@H]1C(=O)Nc1nc(-c2ccccc2)cs1)c1ccccc1`: the concentration giving a half-maximal response (EC50) in data set [1] is 3.8 nM. Besides, the CC50 in data set [2] is greater than 50000 nM.

On to `O=C(N[C@@H](C(=O)N1CCC[C@H]1C(=O)Nc1nc(-c2ccccc2)cs1)c1ccccc1)c1ccccn1`, for which, in data set [1], the concentration for a half-maximal effect (EC50) amounted to 22 nM. Further, the CC50 in data set [2] was greater than 50000 nM.

As for `O=C(Nc1nc(-c2ccccc2)cs1)[C@@H]1CCCN1C(=O)[C@H](NC(=S)Nc1cccnc1)c1ccccc1`, the EC50 in data set [1] worked out at 23 nM. The CC50 in data set [2] was greater than 50000 nM.

Consider `CCC(=O)N[C@@H](C(=O)N1CCC[C@H]1C(=O)Nc1nc(-c2ccccc2)cs1)c1ccccc1`, for which the EC50 in data set [1] stood at 23 nM. This molecule had a CC50 in data set [2] greater than 50000 nM.

Take `CCCC(=O)N[C@@H](C(=O)N1CCC[C@H]1C(=O)Nc1nc(-c2ccccc2)cs1)c1ccccc1`: the concentration giving a half-maximal response (EC50) in data set [1] is 15 nM. Also, the half-maximal cytotoxic concentration (CC50) in data set [2] is greater than 50000 nM.

Regarding `O=C(N[C@@H](C(=O)N1CCC[C@H]1c1ncc(-c2ccccc2)s1)c1ccccc1)N1CCOCC1`, the EC50 in data set [1] is 2970 nM. In data set [2], this molecule had a CC50 greater than 50000 nM.

For the molecule `CCN(CC)C(=O)N[C@@H](C(=O)N1CCC[C@H]1C(=O)Nc1nc(-c2ccccc2)cs1)c1ccccc1`, in data set [1], the concentration for a half-maximal effect (EC50) was 18 nM. Further, the half-maximal cytotoxic concentration (CC50) in data set [2] is greater than 50000 nM.

Regarding `O=C(N[C@@H](C(=O)N1CCC[C@H]1c1nc(-c2ccccc2)no1)c1ccccc1)N1CCOCC1`, the 50% effective concentration (EC50) in data set [1] is greater than 50000 nM. This molecule also displayed a cytotoxic concentration (CC50) in data set [2] greater than 50000 nM.

For the molecule `CC[C@@H](NC(=O)N1CCOCC1)C(=O)N1CCC[C@H]1C(=O)Nc1nc(-c2ccccc2)cs1`, the EC50 in data set [1] was determined as 1630 nM. In data set [2], this molecule displayed a cytotoxic concentration (CC50) greater than 50000 nM.

For `CN1CCN(C(=O)N[C@@H](C(=O)N2CCC[C@H]2C(=O)Nc2nc(-c3ccccc3)cs2)c2ccccc2)CC1`, the EC50 in data set [1] was 0.85 nM. The molecule also yielded a CC50 in data set [2] greater than 50000 nM.

For the molecule `O=C(Nc1nc(-c2ccccc2)cs1)[C@@H]1CCCN1C(=O)[C@H](NC(=S)NC1CCCC1)c1ccccc1`, in data set [1], the concentration for a half-maximal effect (EC50) amounted to 5.2 nM. The molecule also gave a cytotoxic concentration (CC50) in data set [2] greater than 50000 nM.

For the origin of these results see ChEMBL document CHEMBL4052583, “A Potent, Selective, and Orally Bioavailable HCV NS5A Inhibitor for Treatment of Hepatitis C Virus: (S)-1-((R)-2-(Cyclopropanecarboxamido)-2-phenylacetyl)-N-(4-phenylthiazol-2-yl)pyrrolidine-2-carboxamide” (J Med Chem, 2017).
